# Measured values as given in paper PMC5126700 (Scientific Reports, 2016).
# Tests used:
# [1] = target: T1, ERp57 (Homo sapiens, UniProt P30101); experiment: Isothermal Titration Calorimetry of ERp57 with silibinin; assay type: binding; settings: Figure 5b, ERp57 5 μM, silibinin 50 μM
# T1 construct: we performed the isothermal titration calorimetry of the whole protein and its two mutants; made in house; host or cells: E. coli BL21 (pET21)
# T1 sequence (P30101 25-505): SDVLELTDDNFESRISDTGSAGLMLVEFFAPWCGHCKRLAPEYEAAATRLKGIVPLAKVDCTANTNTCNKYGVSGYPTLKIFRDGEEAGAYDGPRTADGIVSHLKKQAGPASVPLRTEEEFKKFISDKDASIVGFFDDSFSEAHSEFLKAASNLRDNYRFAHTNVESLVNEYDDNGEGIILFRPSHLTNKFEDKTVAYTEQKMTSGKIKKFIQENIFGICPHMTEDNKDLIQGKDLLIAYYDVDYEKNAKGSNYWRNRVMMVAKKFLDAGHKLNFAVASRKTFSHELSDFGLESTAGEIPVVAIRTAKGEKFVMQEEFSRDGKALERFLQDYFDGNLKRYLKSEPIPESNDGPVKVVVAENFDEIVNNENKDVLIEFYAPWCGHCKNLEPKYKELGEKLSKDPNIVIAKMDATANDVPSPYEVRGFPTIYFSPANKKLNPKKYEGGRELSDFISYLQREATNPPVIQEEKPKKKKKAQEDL
# Protocol: Both the protein and the ligands were in the same buffer (see Materials and Methods). […] (Lower panel) Integrated heats of reaction plotted against the molar ratio of total ligand concentration to total protein concentration. […] The integrated heat of reaction is plotted against the molar ratio of total ligand concentration to total protein concentration.
# ITC experiments were performed at 25 °C using a MicroCal ITC200 microcalorimeter (MicroCal Inc., Northampton, MA, USA). […] Samples were centrifuged before the experiments to eliminate possible aggregates. Protein and ligand solutions were degassed before use. Titrations were performed at 25 °C. The protein solution was placed in the sample cell, and each ligand solution was loaded into the syringe injector. The titrations involved 19 injections of 2 μL at 180 s intervals. The syringe stirring speed was set at 1,000 rpm. The reaction was very fast, as shown by the immediate appearance of an endothermic sharp peak following the addition of ligand to the protein and its deletion mutants solution in the microcalorimetric titration experiment. Reference titrations of ligand into buffer were used to correct for heats of dilution. […] The values of ΔH were measured for each titration, and fitting the binding isotherms with a one-site binding model yielded the values of the association constant (Ka). […]
# [2] = system: ERp57; settings: cited from earlier work
smiles,measurement,setting,value
COc1cc(C2Oc3cc([C@H]4Oc5cc(O)cc(O)c5C(=O)[C@@H]4O)ccc3OC2CO)ccc1O (stereo partly drawn) [silibinin],n (best fit),[1],0.776 (±0.0183) sites/mole
same,Kd,[1]; read-out: Ka (best fit) (converted),483 nM
same,affinity for ERp57 compared to calcitriol,[2],at least two orders of magnitude lower
